Structures are written as SMILES. pIC50: −log10 of the molar value.

Series [1] concerns bicistronic HCV replicon (replicon RNA, GenBank Accession No. AJ242654). Nature of the series: HCV Replicon Assay. Format: cell-based. Particulars: Hepatitis C virus, 72 h, read-out: Replicon IC50. On the technique in general: A replicon is a self-replicating genome or part of one, used to study replication in cells.

For the compound `Cc1ccc2c(c1)c(C#N)c(-c1ccc(S(=O)(=O)N[C@@H](C)C(F)(F)F)cn1)n2-c1ccccn1` [compound 503, 6-[3-cyano-5-methyl-1-(pyridin-2-yl)-1H-indol-2-yl]-N-[(2S)-1,1,1-trifluoropropan-2-yl]pyridine-3-sulfonamide], the melting point – broadly, the temperature of the solid-liquid transition – was 165 to 167 °C. In addition, the pIC50 (as a rule, the negative decadic logarithm of the IC50, by convention in mol/L) in series [1] was 5.70 to 6.30.
In the same order, the values of `N#Cc1c(-c2ccc(S(=O)(=O)NC(CF)CF)cn2)n(C2CC2)c2cc(C3CC3)ccc12` [compound 147, 6-(3-cyano-1,6-dicyclopropyl-1H-indol-2-yl)-N-(1,3-difluoropropan-2-yl)pyridine-3-sulfonamide] are 226 to 228 °C and over 6.30.
In the same order, the values of `Cc1cc2c(C#N)c(-c3ccc(S(=O)(=O)N[C@@H](C)C(F)(F)F)cn3)n(C3CCC3)c2cc1F` [compound 492, 6-(3-cyano-1-cyclobutyl-6-fluoro-5-methyl-1H-indol-2-yl)-N-[(2S)-1,1,1-trifluoropropan-2-yl]pyridine-3-sulfonamide] are 185 to 190 °C and over 6.30.
The corresponding values for `Cc1ccc2c(c1)c(C#N)c(-c1ncc(S(=O)(=O)N[C@@H](C)C(F)(F)F)cn1)n2C1CCCC1` [compound 391, 2-(3-cyano-1-cyclopentyl-5-methyl-1H-indol-2-yl)-N-[(2S)-1,1,1-trifluoropropan-2-yl]pyrimidine-5-sulfonamide] are 180 to 185 °C and over 6.30.
Take `CC(C)n1c(-c2ccc(S(=O)(=O)N[C@@H](C)C(F)(F)F)cn2)c(C#N)c2ccc(OC(F)F)cc21` [compound 359, 6-[3-cyano-6-(difluoromethoxy)-1-(propan-2-yl)-1H-indol-2-yl]-N-[(2S)-1,1,1-trifluoropropan-2-yl]pyridine-3-sulfonamide]: the melting point fell in the range of 163 to 166 °C. In addition, the negative-log IC50 (pIC50) in series [1] was over 6.30.
`Cc1csc(-n2c(-c3ccc(S(=O)(=O)N[C@@H](C)C(F)(F)F)cn3)c(C#N)c3cc(F)c(C)cc32)n1` [compound 1038, 6-[3-cyano-5-fluoro-6-methyl-1-(4-methyl-1,3-thiazol-2-yl)-1H-indol-2-yl]-N-[(2S)-1,1,1-trifluoropropan-2-yl]pyridine-3-sulfonamide] displayed a melting point of 206.3 to 211.7 °C. For the same compound, the negative logarithm of the IC50 (pIC50) in series [1] is over 6.30.
The corresponding values for `COc1ccc2c(c1)c(C#N)c(-c1ncc(S(=O)(=O)NC(CF)CF)cn1)n2C1CCC1` [compound 551, 2-(3-cyano-1-cyclobutyl-5-methoxy-1H-indol-2-yl)-N-(1,3-difluoropropan-2-yl)pyrimidine-5-sulfonamide] are 217 to 219 °C and over 6.30.
Compound `C[C@@H](NS(=O)(=O)c1cnc(-c2c(C#N)c3ccc(OC(F)F)cc3n2C2CCC2)nc1)C(F)(F)F` [compound 184, 2-[3-cyano-1-cyclobutyl-6-(difluoromethoxy)-1H-indol-2-yl]-N-[(2R)-1,1,1-trifluoropropan-2-yl]pyrimidine-5-sulfonamide] returned a melting point of 112 to 114 °C. Further, the pIC50 in series [1] was over 6.30.
The corresponding values for `Cc1cc2c(cc1F)c(C#N)c(-c1ccc(S(=O)(=O)N[C@@H](C)C(F)(F)F)cn1)n2C1CCC1` [compound 340, 6-(3-cyano-1-cyclobutyl-5-fluoro-6-methyl-1H-indol-2-yl)-N-[(2S)-1,1,1-trifluoropropan-2-yl]pyridine-3-sulfonamide] are 218 to 219 °C and over 6.30.
In the same order, the values of `Cc1cc2c(cc1F)c(C#N)c(-c1ccc(S(=O)(=O)NC(CF)CF)cn1)n2-c1ccccn1` [compound 540, 6-[3-cyano-5-fluoro-6-methyl-1-(pyridin-2-yl)-1H-indol-2-yl]-N-(1,3-difluoropropan-2-yl)pyridine-3-sulfonamide] are 233 to 236 °C and over 6.30.
As to `C[C@H](NS(=O)(=O)c1ccc(-c2c(C#N)c3ccc(OC(F)(F)F)cc3n2C2CCCCC2)nc1)C1CC1` [compound 305, 6-[3-cyano-1-cyclohexyl-6-(trifluoromethoxy)-1H-indol-2-yl]-N-[(1S)-1-cyclopropylethyl]pyridine-3-sulfonamide], the melting point is 195 to 197 °C. In addition, the negative-log IC50 (pIC50) in series [1] is over 6.30.
The corresponding values for `COc1cc2c(cc1F)c(C#N)c(-c1ccc(S(=O)(=O)NC(C)C)cn1)n2C1CCC1` [compound 101, 6-(3-cyano-1-cyclobutyl-5-fluoro-6-methoxy-1H-indol-2-yl)-N-(propan-2-yl)pyridine-3-sulfonamide] are 234 to 237 °C and over 6.30.
As to `CC(C)(NS(=O)(=O)c1ccc(-c2c(C#N)c3cc(F)c(OC(F)F)cc3n2C2CCC2)nc1)C(F)(F)F` [compound 676, 6-[3-cyano-1-cyclobutyl-6-(difluoromethoxy)-5-fluoro-1H-indol-2-yl]-N-(1,1,1-trifluoro-2-methylpropan-2-yl)pyridine-3-sulfonamide], the melting point fell in the range of 162 to 165 °C. Moreover, the pIC50 in series [1] was over 6.30.
Regarding `C[C@H](NS(=O)(=O)c1ccc(-c2c(C#N)c3ccc(OC(F)F)cc3n2-c2ccccn2)nc1)C(F)(F)F` [compound 387, 6-[3-cyano-6-(difluoromethoxy)-1-(pyridin-2-yl)-1H-indol-2-yl]-N-[(2S)-1,1,1-trifluoropropan-2-yl]pyridine-3-sulfonamide], the melting point lay in the range of 199 to 203 °C. Besides, the pIC50 in series [1] was over 6.30.
In the same order, the values of `CC(C)n1c(-c2ncc(S(=O)(=O)NC(CF)CF)cn2)c(C#N)c2ccc(OC(F)F)cc21` [compound 137, 2-[3-cyano-6-(difluoromethoxy)-1-(propan-2-yl)-1H-indol-2-yl]-N-(1,3-difluoropropan-2-yl)pyrimidine-5-sulfonamide] are 219 to 221 °C and over 6.30.
`COc1ccc2c(C#N)c(-c3ncc(S(=O)(=O)N[C@@H](C)C4CC4)cn3)n(C3CCC3)c2c1` [compound 205, 2-(3-cyano-1-cyclobutyl-6-methoxy-1H-indol-2-yl)-N-[(1S)-1-cyclopropylethyl]pyrimidine-5-sulfonamide] gave a melting point of 204 to 206 °C. Further, the negative logarithm of the IC50 (pIC50) in series [1] was over 6.30.
Take `Cc1cc2c(cc1F)c(C(N)=O)c(-c1ccc(S(=O)(=O)N[C@H](C)C(F)(F)F)cn1)n2C1CCOCC1` [compound 767, 5-fluoro-6-methyl-1-(tetrahydro-2H-pyran-4-yl)-2-(5-{[(2R)-1,1,1-trifluoropropan-2-yl]sulfamoyl}pyridin-2-yl)-1H-indole-3-carboxamide]: the melting point was in the range of 258 to 262 °C. The pIC50 in series [1] was over 6.30.
`N#Cc1c(-c2ccc(S(=O)(=O)NC(CF)CF)cn2)n(-c2ccccc2)c2cc(C3CC3)ccc12` [compound 95, 6-(3-cyano-6-cyclopropyl-1-phenyl-1H-indol-2-yl)-N-(1,3-difluoropropan-2-yl)pyridine-3-sulfonamide]: the melting point lay in the range of 171 to 175 °C. Moreover, the negative logarithm of the IC50 (pIC50) in series [1] is over 6.30.
As to `C[C@H](NS(=O)(=O)c1ccc(-c2c(C#N)c3cc(F)ccc3n2C2CCCCC2)nc1)C1CC1` [compound 250, 6-(3-cyano-1-cyclohexyl-5-fluoro-1H-indol-2-yl)-N-[(1S)-1-cyclopropylethyl]pyridine-3-sulfonamide], the melting point was in the range of 161 to 163 °C. In addition, in series [1], the pIC50 is over 6.30.
`COc1ccc2c(c1)c(C#N)c(-c1ncc(S(=O)(=O)N[C@@H](C)C3CC3)cn1)n2C1CCC1` [compound 570, 2-(3-cyano-1-cyclobutyl-5-methoxy-1H-indol-2-yl)-N-[(1S)-1-cyclopropylethyl]pyrimidine-5-sulfonamide] registered a melting point of 182 to 183 °C. Also, the negative-log IC50 (pIC50) in series [1] was 5.70 to 6.30.
In the same order, the values of `C[C@H](NS(=O)(=O)c1ccc(-c2c(C#N)c3ccc(C4CC4)cc3n2C2CCCC2)nc1)C(F)(F)F` [compound 383, 6-(3-cyano-1-cyclopentyl-6-cyclopropyl-1H-indol-2-yl)-N-[(2S)-1,1,1-trifluoropropan-2-yl]pyridine-3-sulfonamide] are 178 to 181 °C and over 6.30.
In the same order, the values of `Cc1ccc2c(C#N)c(-c3ccc(S(=O)(=O)N[C@@H](C)C(F)(F)F)cn3)n(C3CCC3)c2c1` [compound 351, 6-(3-cyano-1-cyclobutyl-6-methyl-1H-indol-2-yl)-N-[(2S)-1,1,1-trifluoropropan-2-yl]pyridine-3-sulfonamide] are 203 to 208 °C and over 6.30.
In the same order, the values of `Cc1cc2c(cc1F)c(C#N)c(-c1ccc(S(=O)(=O)N[C@@H](C)C(F)(F)F)cn1)n2-c1ccc(Cl)s1` [compound 1032, 6-[1-(5-chlorothiophen-2-yl)-3-cyano-5-fluoro-6-methyl-1H-indol-2-yl]-N-[(2S)-1,1,1-trifluoropropan-2-yl]pyridine-3-sulfonamide] are 244.8 to 247.4 °C and over 6.30.
`Cc1c(F)cc2c(C#N)c(-c3ccc(S(=O)(=O)N[C@H](C)C(F)(F)F)cn3)n(C3CCC3)c2c1F` [compound 666, 6-(3-cyano-1-cyclobutyl-5,7-difluoro-6-methyl-1H-indol-2-yl)-N-[(2R)-1,1,1-trifluoropropan-2-yl]pyridine-3-sulfonamide] returned a melting point of 185 to 190 °C. The negative logarithm of the IC50 (pIC50) in series [1] was over 6.30.
On to `Cc1cc2c(cc1Cl)c(C#N)c(-c1ccc(S(=O)(=O)N[C@@H](C)C(F)(F)F)cn1)n2C1CCC1` [compound 446, 6-(5-chloro-3-cyano-1-cyclobutyl-6-methyl-1H-indol-2-yl)-N-[(2S)-1,1,1-trifluoropropan-2-yl]pyridine-3-sulfonamide], for which the melting point was in the range of 209 to 210 °C. The pIC50 in series [1] was over 6.30.
In the same order, the values of `Cc1cc2c(C#N)c(-c3ccc(S(=O)(=O)NC(CF)CF)cn3)n(C3CCCC3)c2cc1F` [compound 482, 6-(3-cyano-1-cyclopentyl-6-fluoro-5-methyl-1H-indol-2-yl)-N-(1,3-difluoropropan-2-yl)pyridine-3-sulfonamide] are 207 to 211 °C and over 6.30.
